The text below walks through data of patent US20140288110A1, “PPAR MODULATORS” (EVOLVA SA, priority 2006, published 2014).

One assay concerns human pre-adipocytes. Briefly: Adipocyte differentiation assay using human pre-adipocytes. It counts as cell-based. Conditions: similar to DMSO.
Another assay relates to HaCaT. Briefly: Proliferation of non-cancer cell line HaCaT, flow cytometry. It counts as cell-based. Conditions: 20 microM, 48 hours of treatment. The procedure:
(§1) A human cervical carcinoma cell line (HeLa) engineered to stably express a recombinant biosensor reporter activity and a non-cancer cell line, HaCaT (Boukamp et al., 1988, J. Cell Biol 106(3):761-771) was used with a Caspa Tag kit (commercially available eg from Chemicon). The detection of proliferation was carried out using a high content screening automated flow cytometer.
(§2) DPD (Substance 1) was diluted to 20 microM in cell culture medium without serum adjusted to 1% DMSO. Detection of cellular events was performed in duplicate in 96-well plates after 48 hours of treatment in the FL2 (dilution of a proliferative marker) channels of a HTS flow cytometer (FACS Calibur HTS, Becton Dickenson). At day 1, cells were seeded in 96 well plates. Cells were treated with DPD and the appropriate controls on day 2 and analysis was carried out on day 4.

For a further assay, the system named is 3T3-L1 / MEFs. The experiment in a line: Adipocyte differentiation assay, induction, Oil Red O staining. It counts as cell-based, mouse. As to conditions: induction assay, Oil Red O. On the procedure: This example describes an assay for determining adipocyte differention. Compounds are tested to see whether they induce adipocyte differentiation and also to see whether they inhibit adipocyte differention.
MEFs were grown in AmnioMax basal medium (Gibco) supplemented with 7.5% Amniomax supplement C-100 (Gibco), 7.5% Fetal Bovine Serum (FBS), 2 mM Glutamine, 62.5 μg/ml penicillin and 100 μg/ml Streptomycin (growth medium). At confluence, MEFs were induced to differentiation in growth medium with the addition of 1 microM dexamethasone (Sigma) 0.5 mM isobutylmethylxanthine (Sigma), 5 microg/ml insulin (Sigma) and 10 microM test compound dissolved in DMSO or DMSO alone. Medium was subsequently renewed every 48 hrs with growth media supplemented with 5 microg/ml Insulin and ligand or DMSO.
Briefly, to test compounds as inducers of adipocyte differentiation, 3T3-L1 are grown to confluence in DMEM with 10% Calf serum (CS), typically in 24 well dishes. At 2 days post confluence (day 0), cells are induced to differentiate with DMEM supplemented with 10% fetal bovine serum (FBS), 1 μM dexamethasone and the test compound ([…], 1 and 10 microM). BRL49653 (1.0 μM dissolved in 100% Me2SO) is used as a positive control. After 48 h, the cells are re-fed with DMEM containing 10% FBS supplemented with the test compound or the positive control. From day 4, cells are grown in DMEM with 10% FBS and are changed every second day until day 8. At day 8, cells are stained with Oil Red O as described below.
Cells cultured as described above are used for Oil Red staining. Dishes are washed in PBS and cells were fixed in 3.7% paraformaldehyde for 1 h and stained with oil red O as described in (Hansen et al 1999). Oil red O solution stock solution is prepared by dissolving 0.5 g of Oil Red O (Sigma) in 100 ml of isopropanol. Oil re O working solution is prepared by diluting a stock solution with water (6:4) followed by filtration.
Table II summarizes results obtained with different analogs of DPD (SN1), “0” representing similar results to DPD, “−1” representing even less adipocyte differentiation, “+1” representing more adipocyte differentiation (both relative to DPD) and “−” meaning not assayed.

Assay [1] relates to human cervical carcinoma cell line (HeLa). The experiment in a line: Inhibition of cancer cell proliferation, HeLa, flow cytometry. It counts as cell-based. As to conditions: 48 hours of treatment, read-out: inhibition of proliferation of HeLa cells. The procedure:
as §1, §2

Another assay addresses T1, full-length hPPARdelta (Homo sapiens, UniProt Q03181).
T1 construct: expressed in transfected cells
T1 sequence (Q03181 1-441): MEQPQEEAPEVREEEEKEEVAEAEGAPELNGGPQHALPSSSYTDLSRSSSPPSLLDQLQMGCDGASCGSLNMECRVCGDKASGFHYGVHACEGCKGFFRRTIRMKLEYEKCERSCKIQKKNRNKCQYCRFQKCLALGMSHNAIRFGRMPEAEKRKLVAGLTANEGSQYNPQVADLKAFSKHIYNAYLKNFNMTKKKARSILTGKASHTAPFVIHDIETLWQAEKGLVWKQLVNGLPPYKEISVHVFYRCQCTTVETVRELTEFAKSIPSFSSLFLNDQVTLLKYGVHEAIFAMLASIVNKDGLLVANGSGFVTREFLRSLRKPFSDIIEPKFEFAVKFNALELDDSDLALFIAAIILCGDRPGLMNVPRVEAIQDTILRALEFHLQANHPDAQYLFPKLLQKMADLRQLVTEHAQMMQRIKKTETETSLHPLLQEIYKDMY
The experiment in a line: Transactivation assay with full length human PPAR delta. It counts as cell-based.

Assay [2] deals with PPARgamma ligand-binding domain (Gal4-PPARgammaLBD). The experiment in a line: PPARgamma transactivation assay (Gal4-PPARgammaLBD, UASx4-TK luc reporter). It counts as cell-based. The source says:
This is an example of a transactivation assay for determining PPAR gamma modulating activity.
The UASx4-TK-luc reporter construct (where UAS refers to “upstream activator sequence”) contains four Gal4-responsive elements. The plasmid Gal4-PPARgammaLBD encodes a Gal4-DBD-PPARgamma-LBD fusion protein (i.e. the DNA-binding domain, DBD, of Gal4 fused to the ligand-binding domain, LBD, of PPARgamma) capable of transactivating the UASx4-TK-luc reporter plasmid by binding to the UAS. The CMV-beta-galactosidase plasmid (where CMV is cytomegalovirus) is used for normalization of experimental values.
The cells were replated, typically in 24 well plates, so that at the time of transfection the cells are 50-70% confluent.
Briefly, per well in a 24 well plate, UASx4TKluc (0.2 microg) Gal4-PPARgammaLBD (or pM-hPPARgamma-LBD; 0.1 microg) and CMV-beta-galactosidase (0.05 microg) in 30 μL DMEM (free of serum and antibiotics) is mixed with 30 microL DMEM (free of serum and antibiotics) containing 1 microL metafectenein. The mixture is incubated at room temperature for 20 min to allow formation of nucleic acid-lipid complexes and then approximately 60 microL is added to each well containing the 50-60% confluent cells. […] Cells were harvested after 12-24 hours and luciferase and beta-galactosidase activities were measured according to standard protocols.
“−” means that testing was not performed.

A further assay has as its target T2, mPPARalphaLBD (Mus musculus, UniProt P23204).
T2 construct: expressed in transfected cells
T2 sequence (P23204 239-466 limits assumed): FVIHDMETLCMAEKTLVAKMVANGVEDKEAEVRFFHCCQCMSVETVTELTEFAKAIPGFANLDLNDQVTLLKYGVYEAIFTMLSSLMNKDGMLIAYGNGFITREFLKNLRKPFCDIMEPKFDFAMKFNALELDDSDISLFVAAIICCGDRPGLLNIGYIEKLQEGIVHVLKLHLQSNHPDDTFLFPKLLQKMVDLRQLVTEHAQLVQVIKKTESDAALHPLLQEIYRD
The experiment in a line: PPARalpha transactivation assay (mPPARalphaLBD). It counts as cell-based. The procedure:
This example describes a transactivation assay for determining PPARalpha modulating activity.
DPD and other ligands are tested for their ability to transactivate PPAR alpha essentially as described in Example 1.

SMILES strings stand for the structures.

With `O=C(O)CC/C=C\C[C@@H]1CO[C@H](c2ccccc2Cl)O[C@@H]1c1ccccc1O` (racemic) [SN1, 4-(Z)-6-(2-o-chlorophenyl-4-o-hydroxyphenyl-1,3-dioxan-cis-5-yl) hexenoic acid], in the assay on human pre-adipocytes, the “red staining in human pre-adipocytes” value is “very little red staining”. The “effect on the non-cancer cell line HaCaT” value in the assay with HaCaT is “no effect”. The “induction of adipocyte differentiation (red staining), in words” value in the assay with 3T3-L1 / MEFs was “very little red staining”. The inhibition at 20 µM in assay [1] was found to be 90%. For the same molecule, the “activation of full-length hPPARdelta” value on full-length hPPARdelta is given as “no activation was seen”. The “PPAR gamma modulating activity, in words” value in assay [2] is “PPAR gamma agonist”. For the same molecule, the “increase of PPAR alpha transactivation” value at mPPARalphaLBD is “no transactivation”.
